33 compounds from patent US20240025893A1, “PYRIMIDINE-AND NITROGEN-CONTAINING BICYCLIC COMPOUND” (Asahi Kasei Pharma Corporation, priority 2020, published 2024) can be followed below.

For assay [1], the system named is LPS-stimulated TNFα production in THP-1 cells. Briefly: LPS-stimulated TNFα production inhibition test using human acute monocytic leukemia cell strain THP-1. It counts as cell-based. The following applies: Homo sapiens, THP-1, 4 h, LPS 2.5 ng/mL, average values. The procedure:
By the THP-1 assay, influence of a test compound on the TNFα production induced by LPS stimulation can be evaluated. The THP-1 cells (ATCC, Cat. TIB-202) were inoculated on a 96-well plate at a density of 1×10^5 cells/160 μL/well, a test compound was added in a volume of 20 μL, and the plate was incubated at 37° C. for 1 hour in a 5% CO2 incubator. Then, LPS in a volume of 20 μL (final concentration 2.5 ng/mL, Sigma, Cat. L2630) was added, and the plate was further incubated for 4 hours. After the incubation, the plate was centrifuged, and 100 μL of the supernatant was taken from each well, and used for evaluation of the amount of TNFα using HTRF (Cisbio, Cat. 62TNFPEB). In the measurement of the amount of TNFα, the supernatant was diluted twice with the medium, and then added to wells of a 384-well plate in a volume of 10 μL, then anti-TNFα-cryptate (5 μL), and anti-TNFα-XL665 (5 μL) were added, and the plate was left standing overnight. The fluorescence intensity ratio for the wavelengths of 620 and 665 nm (620 nm/665 nm) was measured with a microplate reader, and the amount of TNFα in the supernatant was calculated by using a calibration curve. The TNFα production suppression ratio observed with no addition of LPS was defined to be 100%, the TNFα production suppression ratio observed with no addition of the test compound was defined to be 0%, and IC50 of the test compound was calculated by using the 4-parameter logistic model of the data analysis software XLfit (ID Business Solutions Ltd.).

In another assay the target is human IRAK-4 (Homo sapiens (Human), UniProt Q9NWZ3). Briefly: Measurement of human IRAK-4 inhibitory activity (TR-FRET, peptide substrate phosphorylation, 10 μM ATP). The following applies: 1 nM IRAK-4, 10 μM ATP, 23° C., 30 minutes; average values. It counts as biochemical. The procedure:
For the measurement of the activity of the human IRAK-4 (Invitrogen, Cat. PV3362), phosphorylation of the IRAK-4 peptide substrate (biotin-KKKKRFSFKKSFKC) by the enzyme in the presence of 10 μM ATP (Sigma-Aldrich, Cat. A7699) was measured by the TR-FRET method. The enzymatic reaction was performed in a reaction buffer containing 50 mM HEPES (pH 7.2), 1 mM DTT, 0.1 mM Na3VO4, 5 mM MgCl2, 1 mM MnCl2, and 0.1% bovine serum albumin. For the measurement of the IRAK-4 inhibitory activity, a test compound was added to the reaction buffer containing 1 nM IRAK-4, 0.5 μM peptide substrate, and 10 μM ATP, and the mixture was incubated at 23° C. for 30 minutes. Then, a detection solution containing an antibody labeled with europium cryptate (0.3 μg/mL, the antibody was prepared by using the IRAK-4 peptide substrate as the antigen), streptavidin-XL665 (2 μg/mL, CisBio, Cat. 610SAXLB), 50 mM HEPES (pH 7.2), 0.1% BSA, 120 mM KF, and 66.7 mM EDTA (all the concentrations of the reagents are final concentrations) was added to terminate the reaction, and then the mixture was further incubated at 23° C. for 60 minutes. Fluorescence intensity was measured at wavelengths of 665 nm and 620 nm with a microplate reader, and the enzymatic activity was calculated as the ratio of fluorescence intensities at 665 nm and 620 nm (665 nm/620 nm).
On the technique in general: TR-FRET usually uses a lanthanide donor and a delayed reading to cut background.

human IRAK-4, sequence (Q9NWZ3 whole entry): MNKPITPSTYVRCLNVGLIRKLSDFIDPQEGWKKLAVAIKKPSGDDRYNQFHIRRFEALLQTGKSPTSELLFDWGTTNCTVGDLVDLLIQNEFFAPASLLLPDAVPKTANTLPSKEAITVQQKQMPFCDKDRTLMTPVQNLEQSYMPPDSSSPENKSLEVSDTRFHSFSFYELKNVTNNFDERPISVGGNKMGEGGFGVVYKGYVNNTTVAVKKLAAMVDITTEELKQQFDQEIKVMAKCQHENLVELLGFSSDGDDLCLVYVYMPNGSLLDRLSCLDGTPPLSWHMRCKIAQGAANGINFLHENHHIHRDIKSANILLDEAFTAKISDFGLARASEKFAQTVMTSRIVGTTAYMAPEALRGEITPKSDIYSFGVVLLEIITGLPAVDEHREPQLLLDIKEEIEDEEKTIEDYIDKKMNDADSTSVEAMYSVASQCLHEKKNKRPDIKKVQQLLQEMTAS

Turning to `CC(=O)N1CCC2(CC1)CC(C(=O)Nc1nc3ccc(-c4cnc(CO[C@H]5CCC[C@@H]5O)nc4)cc3s1)C2` [d-03-01, 7-Acetyl-N-(6-(2-((((1S,2S)-2-hydroxycyclopentyl)oxy)methyl)pyrimidin-5-yl)benzo[d]thiazol-2-yl)-7-azaspiro[3,5]nonane-2-carboxamide], the IC50 (commonly the point on the concentration scale where inhibition reaches its midpoint) in assay [1] stood at 67 nM; on human IRAK-4 it was 1.38 nM.
Taken in the same sequence, the figures for `C[C@H]1CN(C(=O)c2cnccn2)CCN1[C@H]1C[C@@H](C(=O)Nc2nc3ccc(-c4cnc(CO[C@H]5CCC[C@@H]5O)nc4)cc3s2)C1` [b-04-34] were 66 nM and 1.65 nM.
On the same counts, the results for `Cc1nc(C(=O)N2CCN([C@H]3C[C@@H](C(=O)Nc4nc5ccc(-c6cnc(CO[C@H]7CCC[C@@H]7O)nc6)cc5s4)C3)[C@@H](C)C2)co1` [b-04-36] are 48 nM and 0.9 nM.
Taken in the same sequence, the figures for `O=C(Nc1nc2ccc(-c3cnc(CO[C@H]4CCC[C@@H]4O)nc3)cc2s1)C1CC(N2CCC[C@@H]2C(F)(F)F)C1` (stereo partly drawn) [b-02-43] were 123 nM and 3.1 nM.
As for `CO[C@]1(C)C[C@H](C(=O)Nc2nc3ccc(-c4cnc(CO[C@H]5CCC[C@@H]5O)nc4)cc3s2)C1` [d-01-03], the IC50 in assay [1] turned out to be 175 nM; at human IRAK-4 it was 2.16 nM.
Consider `O=C(Nc1nc2ccc(-c3cnc(CO[C@H]4CCC[C@@H]4O)nc3)cc2s1)C1CC(N2C[C@@H]3C[C@H]2CO3)C1` (stereo partly drawn) [b-02-31], for which the IC50 in assay [1] stood at 194 nM; against human IRAK-4, 2.36 nM.
On the same counts, the results for `CC[C@@H]1COCCN1C1CC(C(=O)Nc2nc3ccc(-c4cnc(CO[C@H]5CCC[C@@H]5O)nc4)cc3s2)C1` (stereo partly drawn) [b-02-21] are 66 nM and 2.12 nM.
Consider `CC[C@H]1COCCN1C1CC(C(=O)Nc2nc3ccc(-c4cnc(CO[C@H]5CCC[C@@H]5O)nc4)cc3s2)C1` (stereo partly drawn) [b-02-20], for which the IC50 in assay [1] came to 78 nM; at human IRAK-4, 4.28 nM.
As to `O=C(Nc1nc2ccc(-c3cnc(CO[C@H]4CCC[C@@H]4O)nc3)cc2s1)C1CC(N2CCO[C@@H]3CCC[C@@H]32)C1` (stereo partly drawn) [b-02-69], the IC50 in assay [1] stood at 80 nM; on human IRAK-4, 1.81 nM.
For `O=C(Nc1nc2ccc(-c3cnc(CO[C@H]4CCC[C@@H]4O)nc3)c(Cl)c2s1)C1CC1` [a-01-11], the IC50 in assay [1] was determined as 437 nM; against human IRAK-4 it was 7.89 nM.
For `O=C(Nc1nc2ccc(-c3cnc(CO[C@H]4CCC[C@@H]4O)nc3)cc2s1)C1CC(N2CC(F)(F)C2)C1` (stereo partly drawn) [b-02-12], the IC50 turned out to be 170 nM in assay [1] and 3.37 nM against human IRAK-4.
On the same counts, the results for `CC(C)[C@H]1COCCN1[C@H]1C[C@@H](C(=O)Nc2cc3cc(-c4cnc(CO[C@H]5CCC[C@@H]5O)nc4)ccn3n2)C1` [e-02-11] are 95 nM and 1.04 nM.
As to `CC(C)[C@H]1CN(C(=O)C2CCOC2)CCN1C1CC(C(=O)Nc2nc3ccc(-c4cnc(CO[C@H]5CCC[C@@H]5O)nc4)cc3s2)C1` (stereo partly drawn) [b-04-17], the IC50 in assay [1] is 22 nM; at human IRAK-4, 1.58 nM.
As for `CO[C@H]1CCN(C2CC(C(=O)Nc3nc4ccc(-c5cnc(CO[C@H]6CCC[C@@H]6O)nc5)cc4s3)C2)C1` (stereo partly drawn) [b-02-14], the IC50 in assay [1] stood at 164 nM; against human IRAK-4, 2.41 nM.
Consider `CN(c1cnn(C)c1)C1CC(C(=O)Nc2nc3ccc(-c4cnc(CO[C@H]5CCC[C@@H]5O)nc4)cc3s2)C1` (stereo partly drawn) [b-03-09], for which the IC50 in assay [1] stood at 143 nM; against human IRAK-4, 2.21 nM.
Regarding `C[C@H]1CN(C(=O)C23CC(C#N)(C2)C3)CCN1[C@H]1C[C@@H](C(=O)Nc2nc3ccc(-c4cnc(CO[C@H]5CCC[C@@H]5O)nc4)cc3s2)C1` [b-04-03], the IC50 in assay [1] is 46 nM; at human IRAK-4, 3.21 nM.
On the same counts, the results for `O=C(Nc1nc2ccc(-c3cnc(CO[C@H]4CCC[C@@H]4O)nc3)cc2s1)C1CC(N2CCOCC2)C1` (stereo partly drawn) [b-01-01, N-(6-(2-((((1S,2S)-2-Hydroxycyclopentyl)oxy)methyl)pyrimidin-5-yl)benzo[d]thiazol-2-yl)-3-moipholinocyclobutane-1-carboxamide] are 154 nM and 3.39 nM.
In the case of `O=C(Nc1nc2ccc(-c3cnc(CO[C@H]4CCC[C@@H]4O)nc3)cc2s1)[C@H]1C[C@@H](OCc2ccncc2)C1` [d-04-05], the IC50 in assay [1] turned out to be 145 nM; at human IRAK-4, 2.05 nM.
With `O=C(Nc1nc2ccc(-c3cnc(CO[C@H]4CCC[C@@H]4O)nc3)cc2s1)C1CC(N2CC[C@H](F)C2)C1` (stereo partly drawn) [b-02-02], the IC50 in assay [1] stood at 195 nM; against human IRAK-4, 2.79 nM.
Taken in the same sequence, the figures for `CC12CC(NC3CC(C(=O)Nc4nc5ccc(-c6cnc(CO[C@H]7CCC[C@@H]7O)nc6)cc5s4)C3)(C1)C2` (stereo partly drawn) [b-02-49] were 119 nM and 2.52 nM.
Taken in the same sequence, the figures for `C[C@H]1CN(C(=O)c2ccc(Cl)cn2)CCN1[C@H]1C[C@@H](C(=O)Nc2cc3cc(-c4cnc(CO[C@H]5CCC[C@@H]5O)nc4)ccn3n2)C1` [e-02-25] were 53 nM and 1.58 nM.
For the compound `C[C@H]1CN(CC(F)(F)F)CCN1C1CC(C(=O)Nc2nc3ccc(-c4cnc(CO[C@H]5CCC[C@@H]5O)nc4)cc3s2)C1` (stereo partly drawn) [b-07-01, N-(6-(2-((((1S,2S)-2-Hydroxycyclopentyl)oxy)methyl)pyrimidin-5-yl)benzo[d]thiazol-2-yl)-3-((S)-2-methyl-4-(2,2,2-trifluoroethyl)piperazin-1-yl)cyclobutane-1-carboxamide], the values for the IC50 (in assay [1]; against human IRAK-4) were 58 nM and 2.34 nM, respectively.
Taken in the same sequence, the figures for `O=C(Nc1nc2ccc(-c3cnc(CO[C@H]4CCC[C@@H]4O)nc3)cc2s1)C1CC(N2CCOC3(CCC3)C2)C1` (stereo partly drawn) [b-02-63] were 159 nM and 2.39 nM.
Regarding `O=C(Nc1nc2ccc(-c3cnc(CO[C@H]4CCC[C@@H]4O)nc3)cc2s1)C1CC(N[C@@H]2C[C@H]2C(F)(F)F)C1` (stereo partly drawn) [b-02-58], the IC50 in assay [1] stood at 133 nM; against human IRAK-4, 2.7 nM.
Taken in the same sequence, the figures for `O=C(Nc1nc2ccc(-c3cnc(COC[C@@H]4CCCO4)nc3)cc2s1)C1CC1` [a-05-01] were 304 nM and 7.81 nM.
On to `Cc1nc(C)c(C(=O)N2CCN([C@H]3C[C@@H](C(=O)Nc4nc5ccc(-c6cnc(CO[C@H]7CCC[C@@H]7O)nc6)cc5s4)C3)[C@@H](C)C2)s1` [b-04-32], for which the figures for the IC50 (in assay [1]; against human IRAK-4) were 50 nM and 1.57 nM, respectively.
On the same counts, the results for `COc1cccc(C(=O)N2CCN([C@H]3C[C@@H](C(=O)Nc4nc5ccc(-c6cnc(CO[C@H]7CCC[C@@H]7O)nc6)cc5s4)C3)[C@@H](C)C2)n1` [b-04-20] are 39 nM and 1.12 nM.
On to `CCCOCc1ncc(-c2ccn3nc(NC(=O)[C@H]4C[C@@H](N5CCN(C(=O)N(C)C)C[C@@H]5C)C4)cc3c2)cn1` [e-02-20], for which the results for the IC50 (in assay [1]; on human IRAK-4) were 244 nM and 2.22 nM, respectively.
Taken in the same sequence, the figures for `O=C(Nc1nc2ccc(-c3cnc(CO[C@H]4CCC[C@@H]4O)nc3)cc2s1)C1CC2(CCN(C(=O)c3ccccn3)CC2)C1` [d-03-06] were 125 nM and 0.849 nM.
In the case of `O=C(Nc1nc2ccc(-c3cnc(CO[C@H]4CCC[C@@H]4O)nc3)cc2s1)C1CC(N2CCOCC3(CC3)C2)C1` (stereo partly drawn) [b-02-24], the figures for the IC50 (in assay [1]; at human IRAK-4) were 180 nM and 1.91 nM, respectively.
On the same counts, the results for `CC1(C)CN(C2CC(C(=O)Nc3nc4ccc(-c5cnc(CO[C@H]6CCC[C@@H]6O)nc5)cc4s3)C2)[C@@H]2CCC[C@H]2O1` (stereo partly drawn) [b-02-70] are 90 nM and 2.94 nM.
For the compound `CCCOCc1ncc(-c2ccc3nc(NC(=O)[C@H]4C[C@@H](N5CCN(C(=O)c6ccncc6Cl)C[C@@H]5C)C4)sc3c2)cn1` [b-04-43], the IC50 in assay [1] was 96 nM; on human IRAK-4, 0.65 nM.
For the compound `C[C@H]1CN(C(=O)c2ccno2)CCN1[C@H]1C[C@@H](C(=O)Nc2nc3ccc(-c4cnc(CO[C@H]5CCC[C@@H]5O)nc4)cc3s2)C1` [b-04-33], the figures for the IC50 (in assay [1]; against human IRAK-4) were 55 nM and 1.99 nM, respectively.
